The values below come from article PMC5298233, “Substrate-analogous inhibitors exert antimalarial action by targeting the Plasmodium lactate transporter PfFNT at nanomolar scale” (PLoS Pathogens, 2017).

The Ki is the dissociation constant of the complex between target and ligand, obtained from inhibition or displacement. Read a high Ki as weaker binding. One may read the Km as the concentration of substrate that gives half-maximal velocity.

Like-named read-outs stand apart in the source and are kept apart here. Where only a bound is given, the exact number is not on record here.

The test system of one test is P. falciparum 3D7. As to the kind of experiment: Viability of cultured P. falciparum parasites (FACS parasitemia). The class given is cell-based, Plasmodium falciparum. As to conditions: for IC50: Plasmodium falciparum, 3D7, 48 h, read-out: IC50 (P. falciparum 3D7).
Test [1] concerns MMV007839 resistant 3D7 parasites. As to the kind of experiment: microbe, parasite or virus in culture. As to conditions: for IC50: Plasmodium falciparum, 3D7, read-out: IC50 (P. falciparum resist.). The format is cell-based, Plasmodium falciparum.
Test [2] concerns the target T1, PfFNT (Plasmodium falciparum, UniProt O77389). Description: cell-based.
For test [3], the target named is T1, PfFNT. As to the kind of experiment: cell-based. As to conditions: for hit identification: inhibition of PfFNT transport at 10 μM: 1 mM substrate gradient, compound added 20 min prior; for inhibition at 10 µM: read-out: % Inhib.
Another test addresses T2, BbFNT (Babesia bovis, UniProt A7AX62).
T2 sequence (A7AX62 1-279): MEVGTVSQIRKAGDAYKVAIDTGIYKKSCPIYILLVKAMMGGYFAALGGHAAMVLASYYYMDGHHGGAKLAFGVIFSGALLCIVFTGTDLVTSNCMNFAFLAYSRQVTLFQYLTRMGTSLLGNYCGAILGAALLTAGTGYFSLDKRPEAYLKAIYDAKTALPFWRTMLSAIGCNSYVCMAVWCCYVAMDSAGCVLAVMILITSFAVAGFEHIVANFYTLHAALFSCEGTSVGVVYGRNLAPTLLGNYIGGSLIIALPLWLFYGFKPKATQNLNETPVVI
As to the kind of experiment: cell-based. As to conditions: wildtype BbFNT; read-out: IC50 (BbFNT / yeast).

The target of a further test is T3, rat MCT1 (Rattus norvegicus, UniProt P53987).
T3 sequence (P53987 1-494): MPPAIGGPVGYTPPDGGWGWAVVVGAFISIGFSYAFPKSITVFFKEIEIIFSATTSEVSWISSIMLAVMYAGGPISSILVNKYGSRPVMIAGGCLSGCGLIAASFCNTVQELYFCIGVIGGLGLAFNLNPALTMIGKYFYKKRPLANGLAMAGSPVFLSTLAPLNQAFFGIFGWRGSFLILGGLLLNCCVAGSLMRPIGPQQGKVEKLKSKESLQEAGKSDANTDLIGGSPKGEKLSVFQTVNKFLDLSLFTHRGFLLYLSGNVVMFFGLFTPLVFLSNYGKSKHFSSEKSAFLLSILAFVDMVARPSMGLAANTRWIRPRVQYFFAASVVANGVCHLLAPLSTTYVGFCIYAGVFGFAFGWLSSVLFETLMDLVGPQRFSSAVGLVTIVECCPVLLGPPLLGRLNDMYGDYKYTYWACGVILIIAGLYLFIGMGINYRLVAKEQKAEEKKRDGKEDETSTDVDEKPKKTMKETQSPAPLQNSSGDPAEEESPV
As to the kind of experiment: L-lactate transport inhibition of MCT1 expressed in yeast. The format is cell-based.

For another test, the target named is T4, BbFNT S93G (Babesia bovis, UniProt A7AX62, S93G).
T4 sequence (A7AX62 1-279 S93G): T2 sequence (A7AX62 1-279)
Description: cell-based. As to conditions: read-out: IC50 (BbFNT S93G / yeast).

For test [4], the target named is T1, PfFNT. As to conditions: earlier determined; read-out: affinity of lactate to PfFNT (Km); cited from earlier work.
In test [5] the target is T1, PfFNT. As to conditions: read-out: IC50 on PfFNT; cited from earlier work.
Where [6] appears, read: IC50 (PfFNT / yeast), 20 min incubation with compound, 1 mM L-lactate.
Setting [7] is: IC50 (PfFNT / yeast), half-maximal lactate transport rate, 20 min treatment.

T1 sequence (O77389 whole entry): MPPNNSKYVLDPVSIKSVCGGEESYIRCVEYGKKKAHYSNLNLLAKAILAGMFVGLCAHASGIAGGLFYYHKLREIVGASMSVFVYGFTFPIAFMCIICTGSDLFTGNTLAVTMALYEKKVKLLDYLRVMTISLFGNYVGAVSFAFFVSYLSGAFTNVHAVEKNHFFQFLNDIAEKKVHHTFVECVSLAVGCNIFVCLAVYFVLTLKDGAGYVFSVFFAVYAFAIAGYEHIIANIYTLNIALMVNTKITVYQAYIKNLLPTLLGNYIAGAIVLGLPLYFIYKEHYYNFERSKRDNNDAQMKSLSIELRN

Regarding `CCO/C(=C\C(=O)c1ccc(OC)cc1)C(F)(F)C(F)(F)F` [BH-296 ethyl ester prodrug], in the test on P. falciparum 3D7, the IC50 is 9.3 ± 1.4 µM.
With `COc1ccc(C(=O)/C=C(\O)C(F)(F)C(F)(F)F)cc1` [BH-296], the “shift in IC50, resistant versus non-resistant parental parasites” value in test [1] was 2.5 fold. Also, the figures for the IC50 (in test [1]; with P. falciparum 3D7; at PfFNT [2] (setting [6])) were 8.6 µM, 3.6 ± 0.2 µM and 0.14 ± 0.01 µM, respectively. The “less efficient in P. falciparum culture” value in the test with P. falciparum 3D7 (compared with PfFNT block in yeast / MMV007839) is 25 times.
In the case of `O=C1CC(O)(C(F)(F)C(F)(F)F)Oc2ccccc21` (stereo not drawn) [MMV000972], on PfFNT [3], the “hit identification: inhibition of PfFNT transport at 10 μM” value is listed as “fully blocked”. In addition, at PfFNT [3], the inhibition at 10 µM amounted to 102%. In addition, the IC50 with P. falciparum 3D7 was determined as 1.7 µM; against PfFNT [2] (setting [7]) it was 0.17 µM.
With `COc1ccc2c(c1)OC(O)(C(F)(F)C(F)(F)F)CC2=O` (stereo not drawn) [MMV007839], on PfFNT [3], the “hit identification: inhibition of PfFNT transport at 10 μM” value is “fully blocked”. The inhibition at 10 µM on PfFNT [3] was determined as 99.1%. Also, the IC50 is 150 µM at BbFNT; 55 µM on rat MCT1; 35 µM in test [1]; 0.17 µM at PfFNT [2] (setting [7]); 0.015 µM against PfFNT [2] (IC50 (PfFNT / yeast; 24 h treatment), compound added 24 h before the assay, last 18 h at 4°C); 11 µM on BbFNT S93G. Also, the “reduction of parasite growth” value is listed as 70% in the test on P. falciparum 3D7 (incubation at IC90 over night) and 17% in the test on P. falciparum 3D7 (short period incubation at IC90 for 1 h). Moreover, the affinity at PfFNT [2] corresponds to a Ki of 1.4 µM. Also, the “higher affinity than the physiological substrate lactate” value at PfFNT [2] (Ki versus lactate Km) is recorded as > 60,000 times. The “re-gain of PfFNT transport activity after removal of inhibitor (dissociation)” value on PfFNT [2] (full and half-maximal inhibition, wash-out, up to 2 h) is recorded as “does not re-gain activity within 2 h”.
For `CC(=O)C=C(O)C(F)(F)C(F)(F)F` [Pharmacophore, 5,5,6,6,6-pentafluoro-4-hydroxyhex-3-en-2-one], the IC50 on PfFNT [2] (setting [6]) worked out at 1.9 µM.
Take `COc1ccc2c(=O)cc(C(F)(F)C(F)(F)F)oc2c1` [[1]]: the IC50 at PfFNT [2] (setting [6]) is greater than 1000 µM.
Still for that read-out and setting: for `COc1ccc2c(c1)OC(C)(C)CC2=O` [[2]] the value was greater than 1000 µM.
The same measure, in the same setting: for `O=C1CC(O)(C(F)(F)C(F)F)Oc2ccc(Cl)cc21` (stereo not drawn) [[3]] the value was 48 ± 2 µM.
On to `COc1ccc2c(c1)C(=O)CC(O)(C(F)F)O2` (stereo not drawn) [[4]], for which the IC50 on PfFNT [2] (setting [6]) was greater than 1000 µM.
Take `COc1ccc2c(c1)OC(O)(C(F)(F)C(F)(F)F)C(C)C2=O` (stereo not drawn) [[5]]: the IC50 at PfFNT [2] (setting [6]) is 145 ± 8 µM.
For the compound `O/N=C1\CC(O)(C(F)(F)F)Oc2ccc(Cl)cc21` (stereo not drawn) [[6]], at PfFNT [2] (setting [6]), the IC50 amounted to 315 ± 63 µM.
Turning to `O=C1CC(O)(C(F)F)Oc2ccccc21` (stereo not drawn) [[7]], the IC50 on PfFNT [2] (setting [6]) amounted to 280 ± 32 µM.
On to `COc1ccc2c(c1)OC(O)(C(F)(F)F)CC2=O` (stereo not drawn) [[8]], for which the IC50 at PfFNT [2] (setting [6]) was 1.1 ± 0.1 µM.
Take `COc1ccc2c(c1)OC(O)(C(F)(F)C(F)F)CC2=O` (stereo not drawn) [[9]]: the IC50 at PfFNT [2] (setting [6]) is 0.36 ± 0.4 µM.
Consider `COc1ccc2c(c1)OC(O)(C(F)(F)C(F)(F)C(F)(F)F)CC2=O` (stereo not drawn) [[10]], for which the IC50 came out at 0.47 ± 0.1 µM in the test with P. falciparum 3D7 and 0.25 ± 0.02 µM on PfFNT [2] (setting [6]).
As for `O=C1CC(O)(C(F)(F)C(F)(F)C(F)(F)C(F)(F)F)Oc2ccccc21` (stereo not drawn) [[11]], the IC50 at PfFNT [2] (setting [6]) came out at 4.9 ± 0.2 µM.
As to `O=C1CC(O)(C(F)(F)C(F)(F)F)Oc2cc(Cl)ccc21` (stereo not drawn) [[12]], the values for the IC50 with P. falciparum 3D7 and at PfFNT [2] (setting [6]) were 0.28 ± 0.05 µM and 0.12 ± 0.01 µM, respectively.
`CCOc1ccc2c(c1)OC(O)(C(F)(F)C(F)(F)F)CC2=O` (stereo not drawn) [[13]]: the IC50 with P. falciparum 3D7 came to 0.05 µM; on PfFNT [2] (setting [6]) it was 0.24 ± 0.01 µM.
With `CC(C)Oc1ccc2c(c1)OC(O)(C(F)(F)C(F)(F)F)CC2=O` (stereo not drawn) [[14]], the IC50 in the test with P. falciparum 3D7 was 0.1 µM; on PfFNT [2] (setting [6]), 0.4 ± 0.01 µM.
`O=C1CC(O)(C(F)(F)C(F)(F)F)Oc2cc(OCc3ccccc3)ccc21` (stereo not drawn) [[15]]: the IC50 on PfFNT [2] (setting [6]) stood at 0.88 ± 0.03 µM.
Consider `CC(O)C(=O)O` (stereo not drawn) [lactate], for which the Km on PfFNT [4] is 87 mM.
As for `O=C(O)c1cccnc1Nc1cccc(C(F)(F)F)c1` [niflumic acid], at PfFNT [5], the IC50 is greater than 100 µM.
